{
  "source": "patent US20250144250A1",
  "about": "“PH-SENSITIVE FLUOROPHORES” (The General Hospital Corporation, priority 2022, published 2025)",
  "origin": "cited, not measured here",
  "settings": "in DMSO; cited from earlier work",
  "data": [
    {"smiles": "CC1(C)C(/C=C/C=C/C=C/C=C2\\N(CCCCS(=O)(=O)O)c3ccc4ccccc4c3C2(C)C)=[N+](CCCCS(=O)(=O)[O-])c2ccc3ccccc3c21", "note": "[ICG, indocyanine green]", "values": [
      {"measurement": "fluorescence QY of calibration standard", "result": 13, "unit": "%"}
    ]}
  ]
}
